The results in this text go back to the OligoGym collection.

Where “and” joins values, the source holds several entries; their conditions need not be identical. Equal entries are not always repeated. After the bases stand the sugars from the 5' end (letter, count) and the backbone: PS all phosphorothioate, else s phosphorothioate and o phosphodiester by linkage. Methylation of C is not given here. e = 2'-O-(2-methoxyethyl) (MOE); k = constrained ethyl (cEt); d = 2'-deoxy (DNA)

The target of this series is APOL1. The following applies: ASO.

In turn, “TTCTATTAGAGGGCTA (sugars kkddddkekekkdddd, PS)” yielded a target mRNA inhibition (A431, 2 µM) of 26%.
ACCCTCTTTATCCCCC (sugars k4 d9 k3, PS): the target mRNA inhibition reads like this: (A431, 0.0625 µM) 53% and 39%; (A431, 0.25 µM) 82% and 65%; (A431, 1 µM) 92% and 81%.
For the sequence ACTTCTGTTAGATACA (sugars k4 d9 k3, PS), the target mRNA inhibition is, setting by setting: (A431, 0.0625 µM) 38%; (A431, 0.25 µM) 73%; (A431, 1 µM) 90%.
In turn, “TTATACCAGTGTCTTC (sugars kdddddkekekddddd, PS)” showed a target mRNA inhibition (A431, 2 µM) of 82%.
As for “GCAATGCTGACTTGGC (sugars kkddddkekekkdddd, PS)”, the target mRNA inhibition runs as follows: (A431, 0.0156 µM) 5%; (A431, 0.0625 µM) 12%; (A431, 0.25 µM) 44%; (A431, 1 µM) 80%; (A431, 2 µM) 91%.
“TTTGTAAGTGCAACCA (sugars kkkddddkdkdkdddd, PS)” came in with a target mRNA inhibition (A431, 2 µM) of 71%.
On to GTTTTATGGAGTCATT (sugars k4 d9 k3, PS), for which the target mRNA inhibition was 51% and 34% (A431, 0.0625 µM); 78% and 70% (A431, 0.25 µM); 92% and 84% (A431, 1 µM).
Consider “GGGAATTATGGAATTG (sugars k2 d4 e3 k2 d5, PS)”, for which, under “A431, 2 µM”, the target mRNA inhibition came out at 86%.
The same measure, in the same setting: the result for “CGTGTTATATTTGATC (sugars kkddddekekeddddd, PS)” reads 76%.
With “CAACACATCATTGGGT (sugars kkddddekekeddddd, PS)”, the target mRNA inhibition (A431, 2 µM) is 80%.
Turning to “GAAGATTGGCTCTGGC (sugars kekddddeekkddddd, PS)”, the target mRNA inhibition (A431, 2 µM) was determined as 87%.
The same measure, in the same setting: the result for “CTATTAGAGGGCTAGT (sugars kddddkekekeddddd, PS)” reads 34%; that for “ACGCAATGCTGACTTG (sugars kkddddkdkdkddddd, PS)”, 85%.
The same measure, in the same setting: the result for “AGTATTGCCAGCTAAG (sugars kkddddkdkdkddddd, PS)” reads 69%; that for “GCAGTTTTGTAAGTGC (sugars k3 d4 k3 e1 d5, PS)”, 76%.
Still for that read-out and setting: the value for “TTTGTAAGTGCAACCA (sugars kkddddkdkdkddddd, PS)” was 99%; that for “TTTGTAAGTGCAACCA (sugars k3 d5 k3 d5, PS)” was 98%.
As to “ATTCTCATGGTACAGG (sugars kkkddddkekeddddd, PS)”, the target mRNA inhibition reads like this: (A431, 0.0156 µM) 15%; (A431, 0.0625 µM) 41%; (A431, 0.25 µM) 73%; (A431, 1 µM) 83%; (A431, 2 µM) 94%.
With GCAGTTTCATATTCAC (sugars k4 d9 k3, PS), the target mRNA inhibition was found to be 75% (A431, 0.0625 µM); 92% (A431, 0.25 µM); 98% (A431, 1 µM).
Sequence “TTTGTAAGTGCAACCA (sugars kkdddddkekeddddd, PS)” displayed a target mRNA inhibition (A431, 0.0156 µM) of 36%; a target mRNA inhibition (A431, 0.0625 µM) of 46%; a target mRNA inhibition (A431, 0.25 µM) of 78%; a target mRNA inhibition (A431, 1 µM) of 91%; a target mRNA inhibition (A431, 2 µM) of 92%.
As to “TGGTTCAAAAGCAGCA (sugars kkkddddkekekdddd, PS)”, the target mRNA inhibition (A431, 2 µM) turned out to be 57%.
On the same count and under the same terms, the result for “CATTCAGAATTTCCAC (sugars kekddddeekkddddd, PS)” reads 89%; that for “TGTAAGTGCAACCAAT (sugars kdddddkekekddddd, PS)”, 81%.
As to “TTCTATTAGAGGGCTA (sugars kdddddkekekddddd, PS)”, the target mRNA inhibition (A431, 2 µM) was found to be 45%.
Still for that read-out and setting: the result for “TAAGTATTGCCAGCTA (sugars k2 d4 e3 k2 d5, PS)” reads 79%.
For the sequence “TCTATTAGAGGGCTAG (sugars k3 d4 k3 e1 d5, PS)”, where the note is “A431, 2 µM”, the target mRNA inhibition was 51%.
“GTTCAAAAGCAGCATT (sugars k3 d4 k3 e1 d5, PS)” gave a target mRNA inhibition (A431, 2 µM) of 80%.
“CGTCAATATATTCTTT (sugars kkddddekekeddddd, PS)” displayed a target mRNA inhibition (A431, 2 µM) of 90%.
The sequence “AAGTATTGCCAGCTAA (sugars kkddddekekeddddd, PS)” came in with a target mRNA inhibition (A431, 2 µM) of 49%.
Same read-out and setting: the result for “ATTCTCATGGTACAGG (sugars kkkddddkekekdddd, PS)” reads 70%; that for “GGGTTATGAAATTATT (sugars kkddddekekeddddd, PS)”, 88%; that for “GAAGCTTTAAACTCAG (sugars kkddddkekekddddd, PS)”, 84%.
For TCCGTCAATATATTCT (sugars k3 d10 k3, PS), the target mRNA inhibition is, setting by setting: (A431, 0.0625 µM) 83%; (A431, 0.25 µM) 96%; (A431, 1 µM) 98%.
Consider “AAGCTTTAAACTCAGG (sugars kkddddekekeddddd, PS)”, for which the target mRNA inhibition turned out to be 20% (A431, 0.0156 µM); 58% (A431, 0.0625 µM); 84% (A431, 0.25 µM); 92% (A431, 1 µM); 95% (A431, 2 µM).
For “TTATATTTGATCCTCA (sugars kkddddkdkdkddddd, PS)”, in that order: 15%, 44%, 76%, 93% and 96%.
In the case of “GAAGATTGGCTCTGGC (sugars kddddkekekeddddd, PS)”, the target mRNA inhibition (A431, 2 µM) came out at 21%.
CCTTATGCTTACTCCA (sugars k4 d9 k3, PS) returned a target mRNA inhibition (A431, 0.0625 µM) of 68%; a target mRNA inhibition (A431, 0.25 µM) of 82%; a target mRNA inhibition (A431, 1 µM) of 93%.
As to “TTATTCTCATGGTACA (sugars kkddddkekekddddd, PS)”, the target mRNA inhibition (A431, 2 µM) is 47%.
In the case of “AGCTTTAAACTCAGGT (sugars k2 d4 e3 k2 d5, PS)”, the target mRNA inhibition (A431, 2 µM) was 93%.
In the case of “CATTCAGAATTTCCAC (sugars k3 d4 k3 e1 d5, PS)”, the target mRNA inhibition (A431, 0.0156 µM) was found to be 5%; the target mRNA inhibition (A431, 0.0625 µM) worked out at 25%; the target mRNA inhibition (A431, 0.25 µM) was found to be 64%; the target mRNA inhibition (A431, 1 µM) was 82%; the target mRNA inhibition (A431, 2 µM) amounted to 92%.
GTAGAATGAGCAGGTC (sugars k4 d9 k3, PS) had a target mRNA inhibition (A431, 0.0625 µM) of 84%; a target mRNA inhibition (A431, 0.25 µM) of 97%; a target mRNA inhibition (A431, 1 µM) of 99%.
“TTCTATTAGAGGGCTA (sugars kkkddddkekekdddd, PS)” registered a target mRNA inhibition (A431, 2 µM) of 42%.
Regarding TAAGTGCTTTGATTCG (sugars k4 d9 k3, PS), the target mRNA inhibition by setting is: (A431, 0.0625 µM) 64% and 82%; (A431, 0.25 µM) 87% and 92%; (A431, 1 µM) 94% and 96%.
As for “ACACATCATTGGGTTA (sugars kkddddkdkdkddddd, PS)”, under “A431, 2 µM”, the target mRNA inhibition came out at 57%.
With “AGTTTTGTAAGTGCAA (sugars kkddddkdkdkddddd, PS)”, the target mRNA inhibition (A431, 0.0156 µM) is 16%; the target mRNA inhibition (A431, 0.0625 µM) was found to be 34%; the target mRNA inhibition (A431, 0.25 µM) is 72%; the target mRNA inhibition (A431, 1 µM) is 85%; the target mRNA inhibition (A431, 2 µM) is 91%.
As to TTATTGCAGGCTCCAA (sugars k4 d9 k3, PS), the target mRNA inhibition reads like this: (A431, 0.0625 µM) 39%; (A431, 0.25 µM) 47%; (A431, 1 µM) 76%.
Turning to TACTTCTGTTAGATAC (sugars k4 d9 k3, PS), the target mRNA inhibition (A431, 0.0625 µM) was 47%; the target mRNA inhibition (A431, 0.25 µM) was determined as 76%; the target mRNA inhibition (A431, 1 µM) is 92%.
As to “AGCTTTAAACTCAGGT (sugars kdddddkekekddddd, PS)”, the target mRNA inhibition is 14% (A431, 0.0156 µM); 46% (A431, 0.0625 µM); 80% (A431, 0.25 µM); 92% (A431, 1 µM); 95% (A431, 2 µM).
In turn, “TTGTAAGTGCAACCAA (sugars k3 d4 k3 e1 d5, PS)” displayed a target mRNA inhibition (A431, 2 µM) of 78%.
The same measure, in the same setting: the result for “TTTTGTAAGTGCAACC (sugars k2 d4 e3 k2 d5, PS)” reads 99%; that for “CACATCATTGGGTTAT (sugars k3 d4 k3 e1 d5, PS)”, 78%; that for “AAGATTGGCTCTGGCT (sugars kkddddkekekddddd, PS)”, 37%.
Turning to “CACATCATTGGGTTAT (sugars k2 d4 e4 k2 d4, PS)”, where the note is “A431, 2 µM”, the target mRNA inhibition was found to be 54%.
On to CTGTGATGTGGGACTT (sugars k4 d9 k3, PS), for which the target mRNA inhibition is, setting by setting: (A431, 0.0625 µM) 50%; (A431, 0.25 µM) 76%; (A431, 1 µM) 89%.
As to “ATTCAGAATTTCCACT (sugars k3 d4 k3 e1 d5, PS)”, the target mRNA inhibition (A431, 2 µM) was 89%.
For the sequence CAGATGTGTTTAGGCA (sugars k4 d9 k3, PS), the target mRNA inhibition runs as follows: (A431, 0.0625 µM) 78%; (A431, 0.25 µM) 93%; (A431, 1 µM) 96%.
“CTTTAAACTCAGGTGA (sugars kddddkekekeddddd, PS)” yielded a target mRNA inhibition (A431, 2 µM) of 70%.
Same read-out and setting: the value for “AACACATCATTGGGTT (sugars k3 d4 k3 e1 d5, PS)” was 58%; that for “TGGTTCAAAAGCAGCA (sugars kkddddekekeddddd, PS)” was 82%.
Sequence “TAAGTATTGCCAGCTA (sugars kkkddddkekeddddd, PS)” returned a target mRNA inhibition (A431, 2 µM) of 78%.
Still for that read-out and setting: the result for “GCTAATTTTCTGACTG (sugars kdddddkekekddddd, PS)” reads 98%.
For AGATGTGTTTAGGCAT (sugars k4 d9 k3, PS), the target mRNA inhibition by setting is: (A431, 0.0625 µM) 54%; (A431, 0.25 µM) 85%; (A431, 1 µM) 95%.
Taken in the same sequence, the figures for TTGATGAGTAGGTGAG (sugars k4 d9 k3, PS) were 72%, 81% and 85%.
For GAAATGAACGCAATGC (sugars k4 d9 k3, PS), in that order: 42%, 71% and 87%.
As to “GTATTTCTTGATGTGG (sugars kekddddeekkddddd, PS)”, the target mRNA inhibition reads like this: (A431, 0.04 µM) 70%; (A431, 1 µM) 99%; (A431, 2 µM) 99%.
